The test system of one data set is B16 melanoma 4A5 cells. Nature of the data set: Melanin production inhibitory effect (theophylline-induced melanin production). The class given is cell-based, mouse. The following applies: melanin production inhibition rate, sample at a concentration of 10 mM or less, 3 days culture, theophylline 1 mmol/L, N=4. Put shortly: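 Mouse B16 4A5 cells cultured 24 h in D-MEM/10% FBS, then 3 days with 1 mmol/L theophylline (final) plus sample at 10 mM or less. Melanin measured by alkali solubilization (1 mol/L NaOH, 60° C, 30 min, A405) against synthetic melanin standard, normalized to BCA protein. Inhibition rate relative to normal and control groups, scored as graded ranges; N=4.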

Data set [1] has as its system Normal human epidermal keratinocytes. Description: Antioxidant test (ROS production after H2O2 treatment, DCFHDA probe). The class given is cell-based. The following applies: sample at a concentration of 10 mM or less, 24 h culture, 0.2 mM H2O2 for 2 hours, ROS per unit protein, N=4. The protocol:
Normal human epidermal keratinocytes were seeded in a 96-well plate using KG2 medium to a cell density of 2.0×10^4 cells/well. After 24 hours of pre-incubation, samples adjusted to a predetermined concentration with KG2 medium were added to each well. After 24 hours of culture and removal of the medium, the wells were washed with HBSS(−) and the ROS-reactive fluorescent probe DCFHDA was allowed to incorporate for 30 minutes. The wells were washed again with HBSS(—), treated with 0.2 mM H2O2, and cultured for 2 hours. The fluorescence intensity was measured, and the amount of ROS produced per unit protein was calculated by dividing the fluorescence intensity by the amount of protein quantified by the BCA method.
The antioxidant effect when the sample was measured at a concentration of 10 mM or less was expressed as follows. The measurement was performed with N=4. • <20%: ± • 20-40%: + • 40-70%: ++ • 70-100%: +++

Data set [2] deals with Normal human dermal fibroblasts. Description: Collagen production promoting effect (ELISA of supernatant). The class given is cell-based. The following applies: amount of collagen produced, % with control group taken as 100%; sample at 10 mmol/L or less, 48 hours, N=3. The essentials:
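Fibroblasts in D-MEM with 5% FBS were pre-incubated 24 h, then exposed to samples for 48 h. Free collagen in supernatant quantified by ELISA (N=3), expressed as % of control (control = 100%) at ≤10 mmol/L, scored ± (<100%), + (100-120%), ++ (120%).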
A general note: ELISA stands for enzyme-linked immunosorbent assay.

In data set [3] the test system is Normal human dermal fibroblasts (NHDF). Description: Hyaluronic acid production promoting effect (ELISA of supernatant). The class given is cell-based. To be noted: amount of hyaluronic acid produced, % with control group taken as 100%; sample at 10 mmol/L or less, 48 hours, N=3. The essentials:
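NHDF pre-incubated 24 h, then exposed to samples at 10 mmol/L or less in serum-free D-MEM for 48 h. Supernatant hyaluronic acid quantified by ELISA, N=3, expressed as % of control (100%) and scored ± (<100%), + (100-120%), ++ (120-150%), +++ (150%).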

Data set [4] in a line: Stability test (residual rate by HPLC, odor, coloring). The class given is physicochemical. To be noted: 1% aqueous solution; for Coloring / Odor: total score of 10 panelists. The essentials: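 A 1% aqueous solution of each test sample was brought to pH 6 with dilute potassium hydroxide aqueous solution, sealed in a 50 mL screw tube, and stored. Residual rate was calculated from HPLC peak area on a Shimadzu liquid chromatograph. Ten panelists scored odor and coloring on a 1–3 scale each, and the summed scores were classified.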

The mark [5] stands for this setting: pH 6, stored at 50° C., four weeks later.
Setting [6] is: pH 6, stored at 50° C., two weeks later.

Data on six compounds can be found in US20260001853A1, “ASCORBIC ACID DERIVATIVE OR SALT THEREOF, AND COSMETIC THEREOF” (SEIWA KASEI COMPANY, LIMITED, priority 2022, published 2026).

For the compound `O=C1O[C@H]([C@@H](O)CO)C(O)=C1OCC(O)CO` (some centres unmarked) [2-O-glyceryl ascorbic acid, reference compound], in the data set with B16 melanoma 4A5 cells, the “Melanin production inhibition effect” value is “+ (20-40%: +)”. Besides, the “Antioxidant Effects” value in data set [1] was “± (<20%: ±)”. Moreover, the “Collagen production promoting effect” value in data set [2] is “+ (100-120%: +)”. Also, in data set [3], the “Hyaluronic acid production promoting effect” value is “+ (100-120%: +)”.
`O=C1O[C@H]([C@@H](O)CO)C(OCC(O)CO)=C1O` (some centres unmarked) [3-O-glyceryl ascorbic acid, reference compound]: the “Melanin production inhibition effect” value in the data set on B16 melanoma 4A5 cells is on record as “+ (20-40%: +)”. Besides, the Residual rate result in data set [4] (pH 6, 50° C., initial) is reported as “⊚ (⊚: 90% or more)”; in data set [4] (setting [5]), “Δ (Δ: 60% or more, less than 80%)”; in data set [4] (setting [6]) it was “◯ (◯: 80% or more, less than 90%)”. The Coloring entry in data set [4] (pH 6, 50° C., initial) is “◯ (◯: Total score of 10 panelists is 25 or more)”; in data set [4] (setting [5]) it was “Δ (Δ: Total score of 10 panelists is 16-24)”; in data set [4] (setting [6]) it was “Δ (Δ: Total score of 10 panelists is 16-24)”. The Odor result was “◯ (◯: Total score of 10 panelists is 20-24)” in data set [4] (pH 6, 50° C., initial); “Δ (Δ: Total score of 10 panelists is 16-19)” in data set [4] (setting [5]); “Δ (Δ: Total score of 10 panelists is 16-19)” in data set [4] (setting [6]). For the same compound, the “Antioxidant Effects” value in data set [1] is listed as “+ (20-40%: +)”. Also, the “Collagen production promoting effect” value in data set [2] is “+ (100-120%: +)”. Moreover, the “Hyaluronic acid production promoting effect” value in data set [3] is on record as “+ (100-120%: +)”.
Regarding `CC(C)(O)COC1=C(O)[C@@H]([C@@H](O)CO)OC1=O` [Synthesis Example 1, 2-O-(2-hydroxyisobutyl) ascorbic acid], the “Melanin production inhibition effect” value with B16 melanoma 4A5 cells is reported as “++ (40-60%: ++)”. In data set [4] (pH 6, 50° C., initial), the Residual rate result is “⊚ (⊚: 90% or more)”, the Coloring entry is given as “◯ (◯: Total score of 10 panelists is 25 or more)” and the Odor entry is “◯ (◯: Total score of 10 panelists is 20-24)”. Also, in data set [4] (setting [5]), the Residual rate result is on record as “⊚ (⊚: 90% or more)”, the Coloring result is recorded as “◯ (◯: Total score of 10 panelists is 25 or more)” and the Odor entry is on record as “◯ (◯: Total score of 10 panelists is 20-24)”. For the same compound, in data set [4] (setting [6]), the Residual rate result is “⊚ (⊚: 90% or more)”, the Coloring entry is on record as “◯ (◯: Total score of 10 panelists is 25 or more)” and the Odor entry is “◯ (◯: Total score of 10 panelists is 20-24)”. Also, the “Antioxidant Effects” value in data set [1] is “++ (40-70%: ++)”. Further, the “Collagen production promoting effect” value in data set [2] is recorded as “++ (120%: ++)”. Besides, the “Hyaluronic acid production promoting effect” value in data set [3] was “+ (100-120%: +)”.
`CC(C)(O)COC1=C(O)C(=O)O[C@@H]1[C@@H](O)CO` [Synthesis Example 2, 3-O-(2-hydroxyisobutyl) ascorbic acid]: the “Melanin production inhibition effect” value in the data set with B16 melanoma 4A5 cells is recorded as “+ (20-40%: +)”. The Residual rate result in data set [4] (pH 6, 50° C., initial) is given as “⊚ (⊚: 90% or more)”; in data set [4] (setting [5]), “⊚ (⊚: 90% or more)”; in data set [4] (setting [6]), “⊚ (⊚: 90% or more)”. The Coloring result is reported as “◯ (◯: Total score of 10 panelists is 25 or more)” in data set [4] (pH 6, 50° C., initial); “◯ (◯: Total score of 10 panelists is 25 or more)” in data set [4] (setting [5]); “◯ (◯: Total score of 10 panelists is 25 or more)” in data set [4] (setting [6]). The Odor entry is “◯ (◯: Total score of 10 panelists is 20-24)” in data set [4] (pH 6, 50° C., initial); “◯ (◯: Total score of 10 panelists is 20-24)” in data set [4] (setting [5]); “◯ (◯: Total score of 10 panelists is 20-24)” in data set [4] (setting [6]). Further, in data set [1], the “Antioxidant Effects” value is “++ (40-70%: ++)”. The “Collagen production promoting effect” value in data set [2] is recorded as “+ (100-120%: +)”. Besides, in data set [3], the “Hyaluronic acid production promoting effect” value was “+ (100-120%: +)”.
With `CCOC1=C(OCC(C)(C)O)C(=O)O[C@@H]1[C@@H](O)CO` [Synthesis Example 3, 2-O-(2-hydroxyisobutyl)-3-O-ethylascorbic acid], the “Melanin production inhibition effect” value in the data set on B16 melanoma 4A5 cells was “+++ (60-100%: +++)”. For the same compound, the “Antioxidant Effects” value in data set [1] is given as “++ (40-70%: ++)”. Further, the “Collagen production promoting effect” value in data set [2] was “++ (120%: ++)”.
In the case of `CCOC1=C(OCC(C)(C)O)[C@@H]([C@@H](O)CO)OC1=O` [Synthesis Example 18, 2-O-ethyl-3-O-(2-hydroxyisobutyl) ascorbic acid], in the data set on B16 melanoma 4A5 cells, the “Melanin production inhibition effect” value is “+++ (60-100%: +++)”. The “Antioxidant Effects” value in data set [1] is “++ (40-70%: ++)”. Besides, in data set [2], the “Collagen production promoting effect” value was “++ (120%: ++)”. Besides, in data set [3], the “Hyaluronic acid production promoting effect” value is “++ (120-150%: ++)”.
